Results reported in PMC12337082 (Journal of Biochemical and Molecular Toxicology, 2025).

Experiments:
Assay type in all cases: cell-based, human
Bax/Bcl‐2 ratio = test: Western blot Bax/Bcl‐2 ratio in breast cancer cell lines; conditions: both cell lines, 50 µM, 24 h
Protocol: Total protein levels were measured using the Take3 Multi‐Volume Plate (Synergy H1, BioTek Instruments Inc., Vermont, USA). In accordance with the classical protocol, transferred proteins were exposed to the following primary antibodies: Beta‐actin (NB600‐501, Novus Biologicals), Bax (SPM336, NBP2‐32809), Bcl‐2 (100/D5, NBP2‐15200), cleaved PARP (194C1439, NBP2‐27335), and COX‐2 (D‐12:sc‐166475, Santa Cruz). The bands were visualized with chemiluminescent HRP substrates (Western Bright ECL‐Advansta, K‐12045‐050). Using a chemiluminescence imaging system (Celvin S, BioStep), the relative quantification was done based on the level of β‐actin proteins.

MCF‐7 = test: Annexin V/PI staining, Tali image‐based cytometry, MCF‐7; conditions: MCF‐7, 24 h
Description: (§1) To assess apoptosis and cell death, cells were stained with Annexin V‐PI dyes (Tali Apoptosis Kit‐Annexin V Alexa Fluor 488 and PI‐, Molecular Probes A10788, Invitrogen) and quantified using Tali Image‐Based Cytometer (Invitrogen) and fluorescence microscopy (Olympus CKX41 Inverted Phase Contrast Fluorescence Microscope furbished with reflected fluorescence illuminator CKX‐RFA).
(§2) To assess whether our compounds produce their cytotoxic effects through induction of apoptosis, apoptosis was investigated using Annexin V/PI labeling and MMP methods (Figures 4A−C). In addition, by utilizing TALI image‐based cytometry and fluorescent microscopy, the number of cells was analyzed for different concentrations of agents (Table 4).

MDA‐MB‐231 = test: Annexin V/PI staining, Tali image‐based cytometry, MDA‐MB‐231; conditions: MDA‐MB‐231, 24 h
Description: as §1, §2

`CCc1cccc2c3c([nH]c12)C(CC)(CC(=O)N/N=C/c1ccc(OC)cc1)OCC3` (racemic) [SGK 206, 2‐(1,8‐Diethyl‐1,3,4,9‐tetrahydropyrano[3,4‐b]indole‐1‐yl) acetic acid[(4‐methoxyphenyl)methylene]acetohydrazide] was tested, and the “Bax/Bcl‐2 ratio change” value (Bax/Bcl‐2 ratio) was “significantly increased”, the Apoptotic cells (MCF‐7; 25 µM) was 2% and the Dead cells (MCF‐7; 25 µM) was 9%. It also gave a Live cells (MCF‐7; 25 µM) of 89%, an Apoptotic cells (MCF‐7; 50 µM) of 4% and a Dead cells (MCF‐7; 50 µM) of 15%. For the same compound, the Live cells (MCF‐7; 50 µM) was 81%, the Apoptotic cells (MCF‐7; 75 µM) was 19% and the Dead cells (MCF‐7; 75 µM) was 19%. The Live cells (MCF‐7; 75 µM) was 62%, the Apoptotic cells (MDA‐MB‐231; 25 µM) was 1% and the Dead cells (MDA‐MB‐231; 25 µM) was 2%. For the same compound, the Live cells (MDA‐MB‐231; 25 µM) was 97%, the Apoptotic cells (MDA‐MB‐231; 50 µM) was 4% and the Dead cells (MDA‐MB‐231; 50 µM) was 3%. For the same compound, the Live cells (MDA‐MB‐231; 50 µM) was 93%, the Apoptotic cells (MDA‐MB‐231; 75 µM) was 8% and the Dead cells (MDA‐MB‐231; 75 µM) was 25%. The Live cells (MDA‐MB‐231; 75 µM) was 67%.
